From PubChem BioAssay (NCI)
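Cultured in 96-well plates, cells were exposed to test compound for 48 hours across five concentrations. TGI marks complete inhibition of growth.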

Key:
Assay in all cases: NCI-60 cell line screen, 48 h
786-0 renal = tested on: 786-0 renal
CAKI-1 renal = tested on: CAKI-1 renal
CCRF-CEM leukemia = tested on: CCRF-CEM leukemia
EKVX NSCLC = tested on: EKVX NSCLC
HCC-2998 colon = tested on: HCC-2998 colon
HOP-62 NSCLC = tested on: HOP-62 NSCLC
IGROV1 ovarian = tested on: IGROV1 ovarian
MALME-3M melanoma = tested on: MALME-3M melanoma
NCI-H522 lung = tested on: NCI-H522 lung
OVCAR-5 ovarian = tested on: OVCAR-5 ovarian
RPMI-8226 leukemia = tested on: RPMI-8226 leukemia
RXF 393 renal = tested on: RXF 393 renal
SF-268 CNS = tested on: SF-268 CNS
SN12C renal = tested on: SN12C renal
SNB-75 CNS = tested on: SNB-75 CNS
SR leukemia = tested on: SR leukemia
BT-549 breast = tested on: BT-549 breast
MDA-MB-231 breast = tested on: MDA-MB-231 breast

Row | SMILES | TGI (786-0 renal) [µM] | TGI (CAKI-1 renal) [µM] | TGI (CCRF-CEM leukemia) [µM] | TGI (EKVX NSCLC) [µM] | TGI (HCC-2998 colon) [µM] | TGI (HOP-62 NSCLC) [µM] | TGI (IGROV1 ovarian) [µM] | TGI (MALME-3M melanoma) [µM] | TGI (NCI-H522 lung) [µM] | TGI (OVCAR-5 ovarian) [µM] | TGI (RPMI-8226 leukemia) [µM] | TGI (RXF 393 renal) [µM] | TGI (SF-268 CNS) [µM] | TGI (SN12C renal) [µM] | TGI (SNB-75 CNS) [µM] | TGI (SR leukemia) [µM] | TGI (BT-549 breast) [µM] | TGI (MDA-MB-231 breast) [µM]
1 | C/C(=N/NC(N)=S)C(CN(C)C)C(C1=C(O)c2ccccc2OC1)c1ccccc1 (stereo not drawn) | > 100 | > 100 | > 100 | > 100 | > 100 | > 100 | > 100 | > 100 | > 100 | > 100 | > 100 | > 100 | > 100 | > 100 | > 100 | > 100 |  | 
2 | CN1N=C2c3ccccc3CC[C@H]2C1c1cccc(O)c1 (stereo partly drawn) | > 100 |  | > 100 | > 100 | > 100 | > 100 | > 100 | 5.01 | > 100 | > 100 | > 100 | > 100 | > 100 | > 100 |  | > 100 |  | 
3 | C#Cc1cc(CN(CC(=O)OC(C)(C)C)CC(=O)OC(C)(C)C)nc(CN(CC(=O)OC(C)(C)C)CC(=O)OC(C)(C)C)c1 | 47.8 | 33.1 | 7.93 | 49.3 | 33.9 | 24.1 | 26.7 | 20.9 | 4.22 | > 100 | 6.25 | 14.2 | 44.8 | > 100 | 43.4 |  |  | 
4 | Cc1cc(=O)[nH]c(NNC(C#N)c2ccco2)n1 (stereo not drawn) | > 100 | > 100 | > 100 |  |  | > 100 | > 100 | > 100 | > 100 | > 100 | > 100 | > 100 | > 100 | > 100 | > 100 | > 100 |  | 
5 | O=[N+]([O-])c1ccc(C(=Nc2ccccc2)SSC(=Nc2ccccc2)c2ccc([N+](=O)[O-])o2)o1 | 4.08 | 4.67 |  | 3.48 | 3.41 | 6.23 | 3.51 | 5.09 | 0.755 | 5.04 |  | 4.55 | 4.4 | 4.48 | 3.45 | > 100 | 3.69 | 7.92
6 | CC(C)(C)C(=O)/C=C/c1cccc(Oc2ccccc2)c1 | 30.7 |  | 31 | 35.9 | 36.5 | > 100 | 78 | 36.2 | 29.8 | 32.8 | 22.5 | 30 |  | 27.4 | 64.6 | > 100 |  | 
7 | COc1ccc(C2S/C(=C\c3ccccc3)C(=O)N2NC(=O)Cc2ccccc2)cc1 (stereo not drawn) | > 100 | > 100 | > 100 |  |  | > 100 | > 100 | > 100 | > 100 | > 100 | > 100 | > 100 | > 100 | > 100 | > 100 | > 100 |  | 
